Assays:
Assay type in all cases: physicochemical
[1] = Hygroscopicity / dynamic vapour sorption (DVS)
Procedure: (§1) Approximately, 10-20 mg of sample were placed into a mesh vapour sorption balance pan and loaded into a DVS Intrinsic dynamic vapour sorption balance by Surface Measurement Systems. The sample was subjected to a ramping profile from 40-90% relative humidity (RH) at 10% increments, maintaining the sample at each step until a stable weight had been achieved (dm/dt 0.004%, minimum step length 30 minutes, maximum step length 500 minutes) at 25° C. After completion of the sorption cycle, the sample was dried using the same procedure to 0% RH and then a second sorption cycle back to 40% RH. Two cycles were performed. The weight change during the sorption/desorption cycles were plotted, allowing for the hygroscopic nature of the sample to be determined. XRPD analysis was then carried out on any solid retained.
as §1, with “Approximately, 10” for “Approximately, 10-20”, “sample was” for “sample were”, “a DVS-1” for “a DVS Intrinsic”

[2] = Storage stability of Compound 3 forms (80° C., 40° C./75% RH, 25° C./60% RH, ambient); conditions: 1 week
Procedure: No changes by XRPD or HPLC purity were observed when the material was stored at 40° C./75% RH, 80° C. or under ambient conditions.

[3] = Solubility in selected media (FaSSIF, FeSSIF, FaSSGF, pH 4 citrate, pH 6.8 phosphate)
Procedure: Solubility within selected media (FaSSIF, FeSSIF, FaSSGF, pH 4 citrate and pH 6.8 phosphate) was measured to be <0.01 mg/mL.
The pH 4 citrate buffer was prepared by dissolving sodium citrate (987 mg) and citric acid (1.28 g) in 100 mL H2O. The pH was adjusted to 4. The pH 6.8 phosphate buffer was prepared by dissolving dibasic sodium phosphate dihydrate (873 mg) and monobasic sodium phosphate monohydrate (708 mg) in 100 mL H2O. The pH was adjusted to 6.8. The FaSSIF media was prepared with sodium hydroxide (108 mg), sodium chloride (1.55 g) and monobasic sodium phosphate dihydrate (1.12 g) in H2O (0.25 L) and the pH adjusted to 6.5. FaSSIF/FeSSIF/FaSSGF (0.56 g) was dissolved in the buffer and mixed until opalescent. The FeSSIF media was prepared by dissolving sodium hydroxide (1.01 g), sodium chloride (2.96 g) and glacial acetic acid (2.97 g) in H2O (0.25 L) and the pH adjusted to pH 5. FaSSIF/FeSSIF/FaSSGF (2.81 g) was dissolved in the buffer and thoroughly mixed. The FaSSGF media was prepared by dissolving FaSSIF/FeSSIF/FaSSGF (0.06 g) in a solution of sodium chloride (2.00 g) dissolved in H2O (1 L) and mixing thoroughly.

[4] = Drying of isolated samples at 50° C. for approximately 24 hours
Procedure: Samples produced from thermal cycling, cooling and evaporation experiments were dried at 50° C. for approximately 24 hours to assess any de-solvation/dehydration. From temperature cycling experiments, 3 samples converted upon drying: • Acetonitrile sample converted from Form J to amorphous; • 40% Ethanol/60% Water (% v/v) converted from Form N to Form P; and • Methanol sample converted from Form O to amorphous.

[5] = Thermogravimetric/differential thermal analysis (TG/DTA)
Procedure: Approximately, 5 mg of material was weighed into an open aluminium pan and loaded into a simultaneous thermogravimetric/differential thermal analyzer (TG/DTA) and held at room temperature. The sample was then heated at a rate of 10° C./min from 20° C. to 400° C. during which time the change in sample weight occurred was recorded along with any differential thermal events (DTA). Nitrogen was used as the purge gas at a flow rate of 300 cm^3/min.

[6] = Differential scanning calorimetry (DSC)
Procedure: DSC was performed using a TA Instruments 2920 or Q2000 differential scanning calorimeter. Temperature calibration was performed using NIST-traceable indium metal. The sample was placed into an aluminum DSC pan, covered with a lid, and the weight was accurately recorded. A weighed aluminum pan configured as the sample pan was placed on the reference side of the cell. The method code on the thermogram is an abbreviation for the start and end temperature as well as the heating rate; e.g., -30-250-10 means “from −30° C. to 250° C., at 10° C./min”. The following table summarizes the abbreviations used in each image for pan configurations: […]

[7] = Variable temperature XRPD (VT-XRPD); conditions: Table 27A
Procedure: VT-XRPD analysis was carried out on a Philips X'Pert Pro Multipurpose diffractometer equipped with a temperature chamber. The samples were scanned between 4 and 35.99°2θ using Cu K radiation (α1λ=1.54060 Å; α2=1.54443 Å; β=1.39225 Å; α1: α2 ratio=0.5) running in Bragg-Brentano geometry (step size 0.008°2θ) using 40 kV/40 mA generator settings.

[8] = Polarized light microscopy (PLM); conditions: Table 27A
Procedure: The presence of crystallinity (birefringence) was determined using an Olympus BX50 microscope, equipped with cross-polarizing lenses and a Motic camera. Images were captured using Motic Images Plus 2.0. All images were recorded using the 20×objective, unless otherwise stated. All samples were prepared using silicone oil and covered with a cover slip before PLM analysis was completed.

Compound: CC(=O)c1nn(CC(=O)N2[C@H](C(=O)Nc3nc(Br)ccc3C)C[C@@]3(C)C[C@@H]23)c2ccc(-c3cnc(C)nc3)cc12 [Form J]
- DVS analysis: hygroscopic nature ([1]; 25° C.): hygroscopic
- DVS: hygroscopicity ([1]; Table 27A): Hygroscopic first
- XRPD post DVS ([1]; Table 27A): Form B
- Post-DVS XRPD analysis ([1]; after DVS): pattern D
- DVS uptake ([1]; first sorption cycle): 6.9 wt %
- DVS uptake as equivalents of water ([1]; first sorption cycle): 2.5 equiv. water
- DVS uptake ([1]; second sorption cycle): 5.2 wt %
- DVS uptake as equivalents of water ([1]; second sorption cycle): 1.8 equiv. water
- 1 week stability: 40° C./75% RH HPLC (uncapped) [2]: 99.8% (by relative area)
- 1 week stability: 80° C. HPLC (capped) [2]: 99.9% (by relative area)
- 1 week stability: 80° C. XRPD (capped) [2]: Pattern D
- 1 week stability: Ambient conditions HPLC (capped) [2]: 99.9% (by relative area)
- solubility ([3]; FaSSGF): <10 µg/mL
- solubility ([3]; FaSSIF): <10 µg/mL
- solubility ([3]; FeSSIF): <10 µg/mL
- Form after drying (de-solvation/dehydration) [4]: amorphous
- Onset Temp: Solvent loss ([5]; Table 22B): loss 129.3, ° C.
- Onset Temp: melting transition ([5]; Table 22B): 200.0 °C
- TG/DTA: Melting ([5]; Table 27A): melting 206.7 °C
- TG/DTA: Solvent loss ([5]; Table 27A): Solvent loss 138.5° C.,
- Mass loss within the TG trace ([5]; up to 150° C.): 2.2 wt %
- Thermal events from SSCI report: Exothermic base line shifts ([6]; SSCI report): ~134° C., apparent
- Thermal events from SSCI report: apparent melt onset ([6]; SSCI report): melt onset 83 °C
- DSC: Melting ([6]; onset, Table 27A): melting 202.9 °C
- DSC: Solvent loss ([6]; onset, Table 27A): Solvent loss 138.5 °C
- DSC: Melting (peak) ([6]; peak, Table 27A): (peak 213.3° C.)
- DSC: Solvent loss (peak) ([6]; peak, Table 27A): (peak 152.4° C.)
- VT-XRPD: Form J de-solvated to Pattern G [7]: Pattern G (120° C.)
- PLM [8]: Birefringent rods
